According to ChEMBL document CHEMBL3421577, “Discovery and biological evaluation of tetrahydrothieno[2,3-c]pyridine derivatives as selective metabotropic glutamate receptor 1 antagonists for the potential treatment of neuropathic pain” (Eur J Med Chem, 2015):

Columns and labels:
[1] = biological target: CYP2D6 (Homo sapiens, UniProt P10635); experiment: Inhibition of recombinant human CYP2D6 assessed as remaining activity at 10 uM preincubated for 5 mins followed by substrate and NADP addition measured after 20 mins by fluorescence assay relative to control; type: ADME; details: read-out: Activity
Chain of CYP2D6 (P10635 whole entry): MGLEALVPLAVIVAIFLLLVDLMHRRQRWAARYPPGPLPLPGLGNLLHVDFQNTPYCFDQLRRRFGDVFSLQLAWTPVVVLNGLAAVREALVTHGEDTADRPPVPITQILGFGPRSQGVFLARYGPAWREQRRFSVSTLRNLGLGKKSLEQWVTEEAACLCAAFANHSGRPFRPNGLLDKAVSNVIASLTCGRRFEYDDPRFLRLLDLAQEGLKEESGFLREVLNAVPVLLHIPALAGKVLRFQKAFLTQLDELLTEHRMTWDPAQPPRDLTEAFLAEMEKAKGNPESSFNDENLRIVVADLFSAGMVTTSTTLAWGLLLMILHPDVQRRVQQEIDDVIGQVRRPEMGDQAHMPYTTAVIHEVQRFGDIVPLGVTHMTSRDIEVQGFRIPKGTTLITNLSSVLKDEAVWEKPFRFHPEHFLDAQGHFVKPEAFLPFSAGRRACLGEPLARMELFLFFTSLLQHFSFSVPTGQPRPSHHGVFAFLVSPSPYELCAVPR

[2] = biological target: CYP2C9 (Homo sapiens, UniProt P11712); experiment: Inhibition of recombinant human CYP2C9 assessed as remaining activity at 10 uM preincubated for 5 mins followed by substrate and NADP addition measured after 20 mins by fluorescence assay relative to control; type: ADME; details: read-out: Activity
Chain of CYP2C9 (P11712 whole entry): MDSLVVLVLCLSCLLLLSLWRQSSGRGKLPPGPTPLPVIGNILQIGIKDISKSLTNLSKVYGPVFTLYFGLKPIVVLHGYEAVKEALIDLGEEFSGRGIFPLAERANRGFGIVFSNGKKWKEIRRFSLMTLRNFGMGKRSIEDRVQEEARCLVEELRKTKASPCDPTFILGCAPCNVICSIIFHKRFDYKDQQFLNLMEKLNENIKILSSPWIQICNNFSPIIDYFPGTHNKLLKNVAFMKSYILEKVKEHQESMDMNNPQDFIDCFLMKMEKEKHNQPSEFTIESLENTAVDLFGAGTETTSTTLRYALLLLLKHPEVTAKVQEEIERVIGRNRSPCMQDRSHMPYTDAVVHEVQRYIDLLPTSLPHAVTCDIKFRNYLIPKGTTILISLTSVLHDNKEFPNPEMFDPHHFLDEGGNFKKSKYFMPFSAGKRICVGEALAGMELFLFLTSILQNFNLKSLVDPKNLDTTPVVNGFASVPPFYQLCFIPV

[3] = biological target: CYP2C19 (Homo sapiens, UniProt P33261); experiment: Inhibition of recombinant human CYP2C19 assessed as remaining activity at 10 uM preincubated for 5 mins followed by substrate and NADP addition measured after 20 mins by fluorescence assay relative to control; type: ADME; details: read-out: Activity
Chain of CYP2C19 (P33261 whole entry): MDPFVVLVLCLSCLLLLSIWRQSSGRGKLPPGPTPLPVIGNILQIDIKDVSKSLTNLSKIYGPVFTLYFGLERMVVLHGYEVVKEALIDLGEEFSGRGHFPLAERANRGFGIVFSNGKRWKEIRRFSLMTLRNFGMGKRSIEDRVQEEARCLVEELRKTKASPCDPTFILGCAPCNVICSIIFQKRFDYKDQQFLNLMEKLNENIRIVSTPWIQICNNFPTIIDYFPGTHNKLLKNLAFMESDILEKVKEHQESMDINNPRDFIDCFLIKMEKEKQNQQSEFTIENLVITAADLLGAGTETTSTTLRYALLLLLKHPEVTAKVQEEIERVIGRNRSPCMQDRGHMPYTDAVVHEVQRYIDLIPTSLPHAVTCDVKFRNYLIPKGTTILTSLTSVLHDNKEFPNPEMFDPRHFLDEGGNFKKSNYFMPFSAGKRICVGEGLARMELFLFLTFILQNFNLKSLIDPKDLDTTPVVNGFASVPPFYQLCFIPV

[4] = Metabolic stability in human liver microsomes assessed as compound remaining at 1 uM after 30 mins by LC-MS/MS analysis in presence of NADPH; type: ADME; details: read-out: Stability
[5] = biological target: 5-hydroxytryptamine receptor 2A (Homo sapiens) (UniProt P28223); experiment: Agonist activity at 5HT2A receptor (unknown origin) at 12.5 uM relative to control
Chain of 5-hydroxytryptamine receptor 2A (Homo sapiens) (P28223 whole entry): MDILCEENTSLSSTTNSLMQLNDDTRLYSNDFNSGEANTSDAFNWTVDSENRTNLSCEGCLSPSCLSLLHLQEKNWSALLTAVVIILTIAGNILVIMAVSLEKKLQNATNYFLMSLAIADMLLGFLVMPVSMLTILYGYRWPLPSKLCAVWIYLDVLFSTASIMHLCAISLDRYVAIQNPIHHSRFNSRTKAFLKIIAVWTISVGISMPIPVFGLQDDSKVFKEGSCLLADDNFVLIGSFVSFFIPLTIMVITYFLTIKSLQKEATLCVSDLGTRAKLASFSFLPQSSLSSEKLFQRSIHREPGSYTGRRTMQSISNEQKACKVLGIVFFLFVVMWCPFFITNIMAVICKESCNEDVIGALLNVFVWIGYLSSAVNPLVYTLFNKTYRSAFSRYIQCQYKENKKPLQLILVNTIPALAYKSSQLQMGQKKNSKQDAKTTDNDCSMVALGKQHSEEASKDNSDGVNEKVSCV

[6] = biological target: 5-hydroxytryptamine receptor 2C (Homo sapiens) (UniProt P28335); experiment: Agonist activity at 5HT2C receptor (unknown origin) at 12.5 uM relative to control
Chain of 5-hydroxytryptamine receptor 2C (Homo sapiens) (P28335 whole entry): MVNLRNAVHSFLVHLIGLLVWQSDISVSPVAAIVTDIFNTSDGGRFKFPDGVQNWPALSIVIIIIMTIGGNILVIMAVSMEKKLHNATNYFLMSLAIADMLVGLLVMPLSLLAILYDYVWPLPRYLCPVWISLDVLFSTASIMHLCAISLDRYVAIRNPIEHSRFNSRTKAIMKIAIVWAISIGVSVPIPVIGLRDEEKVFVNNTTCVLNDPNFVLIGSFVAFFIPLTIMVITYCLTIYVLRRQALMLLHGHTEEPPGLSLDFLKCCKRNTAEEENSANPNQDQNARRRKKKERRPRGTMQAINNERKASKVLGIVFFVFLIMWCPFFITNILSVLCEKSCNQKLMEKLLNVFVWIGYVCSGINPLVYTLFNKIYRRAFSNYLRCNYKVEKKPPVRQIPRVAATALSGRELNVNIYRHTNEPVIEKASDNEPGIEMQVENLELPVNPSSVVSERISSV

[7] = biological target: B2 bradykinin receptor (Homo sapiens) (UniProt P30411); experiment: Agonist activity at BDKR2 (unknown origin) at 12.5 uM relative to control
Chain of B2 bradykinin receptor (Homo sapiens) (P30411 whole entry): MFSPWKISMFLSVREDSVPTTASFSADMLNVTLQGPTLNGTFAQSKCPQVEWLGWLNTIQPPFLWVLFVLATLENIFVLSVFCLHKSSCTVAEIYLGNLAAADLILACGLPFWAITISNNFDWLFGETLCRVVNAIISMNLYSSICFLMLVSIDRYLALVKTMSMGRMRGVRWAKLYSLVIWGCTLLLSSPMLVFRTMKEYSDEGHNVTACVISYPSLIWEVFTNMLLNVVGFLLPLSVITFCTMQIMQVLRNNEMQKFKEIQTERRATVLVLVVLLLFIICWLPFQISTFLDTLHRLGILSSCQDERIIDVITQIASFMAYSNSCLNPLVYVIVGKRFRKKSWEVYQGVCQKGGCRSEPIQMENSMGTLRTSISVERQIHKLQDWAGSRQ

[8] = biological target: Cannabinoid receptor 1 (Homo sapiens) (UniProt P21554); experiment: Agonist activity at CB1 receptor (unknown origin) at 12.5 uM relative to control
Chain of Cannabinoid receptor 1 (Homo sapiens) (P21554 whole entry): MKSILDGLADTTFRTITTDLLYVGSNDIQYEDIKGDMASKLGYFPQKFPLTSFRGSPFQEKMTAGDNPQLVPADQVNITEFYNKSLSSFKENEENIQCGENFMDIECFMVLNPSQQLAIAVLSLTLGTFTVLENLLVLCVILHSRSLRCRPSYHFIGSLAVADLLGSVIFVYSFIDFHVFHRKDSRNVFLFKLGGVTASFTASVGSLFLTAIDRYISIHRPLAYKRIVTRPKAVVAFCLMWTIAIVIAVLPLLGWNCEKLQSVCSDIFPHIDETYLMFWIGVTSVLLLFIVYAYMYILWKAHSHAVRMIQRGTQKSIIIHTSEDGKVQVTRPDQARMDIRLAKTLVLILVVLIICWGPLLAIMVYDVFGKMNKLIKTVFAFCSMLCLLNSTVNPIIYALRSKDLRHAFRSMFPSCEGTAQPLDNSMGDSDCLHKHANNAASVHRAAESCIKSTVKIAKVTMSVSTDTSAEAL

[9] = biological target: C-C chemokine receptor type 4 (Homo sapiens) (UniProt P51679); experiment: Agonist activity at CCR4 (unknown origin) at 12.5 uM relative to control
[10] = biological target: C-C chemokine receptor type 5 (Homo sapiens) (UniProt P51681); experiment: Agonist activity at CCR5 (unknown origin) at 12.5 uM relative to control
Chain of C-C chemokine receptor type 5 (Homo sapiens) (P51681 whole entry, looked up): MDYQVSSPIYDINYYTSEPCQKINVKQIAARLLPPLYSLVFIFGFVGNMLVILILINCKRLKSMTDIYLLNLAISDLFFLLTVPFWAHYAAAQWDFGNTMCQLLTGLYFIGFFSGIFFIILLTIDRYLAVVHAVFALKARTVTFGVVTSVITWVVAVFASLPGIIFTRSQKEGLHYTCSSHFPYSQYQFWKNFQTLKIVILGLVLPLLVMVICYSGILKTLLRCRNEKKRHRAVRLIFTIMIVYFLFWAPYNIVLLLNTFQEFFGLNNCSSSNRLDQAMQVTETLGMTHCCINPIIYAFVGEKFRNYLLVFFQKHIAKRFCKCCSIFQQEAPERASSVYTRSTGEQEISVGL

[11] = biological target: C-X-C chemokine receptor type 5 (Homo sapiens) (UniProt P32302); experiment: Agonist activity at CXCR5 (unknown origin) at 12.5 uM relative to control
Chain of C-X-C chemokine receptor type 5 (Homo sapiens) (P32302 whole entry): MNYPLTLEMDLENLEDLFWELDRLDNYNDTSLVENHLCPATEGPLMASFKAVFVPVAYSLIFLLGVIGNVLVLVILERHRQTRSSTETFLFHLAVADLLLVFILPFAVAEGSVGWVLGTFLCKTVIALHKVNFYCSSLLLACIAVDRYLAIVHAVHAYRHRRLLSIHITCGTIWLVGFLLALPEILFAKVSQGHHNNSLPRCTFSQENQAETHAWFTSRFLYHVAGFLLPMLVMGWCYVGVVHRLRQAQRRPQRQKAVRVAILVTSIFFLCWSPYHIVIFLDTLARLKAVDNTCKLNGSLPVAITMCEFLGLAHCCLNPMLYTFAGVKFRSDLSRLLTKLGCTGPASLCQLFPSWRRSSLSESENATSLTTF

[12] = biological target: Muscarinic acetylcholine receptor M1 (Homo sapiens) (UniProt P11229); experiment: Agonist activity at M1 receptor (unknown origin) at 12.5 uM relative to control
Chain of Muscarinic acetylcholine receptor M1 (Homo sapiens) (P11229 whole entry): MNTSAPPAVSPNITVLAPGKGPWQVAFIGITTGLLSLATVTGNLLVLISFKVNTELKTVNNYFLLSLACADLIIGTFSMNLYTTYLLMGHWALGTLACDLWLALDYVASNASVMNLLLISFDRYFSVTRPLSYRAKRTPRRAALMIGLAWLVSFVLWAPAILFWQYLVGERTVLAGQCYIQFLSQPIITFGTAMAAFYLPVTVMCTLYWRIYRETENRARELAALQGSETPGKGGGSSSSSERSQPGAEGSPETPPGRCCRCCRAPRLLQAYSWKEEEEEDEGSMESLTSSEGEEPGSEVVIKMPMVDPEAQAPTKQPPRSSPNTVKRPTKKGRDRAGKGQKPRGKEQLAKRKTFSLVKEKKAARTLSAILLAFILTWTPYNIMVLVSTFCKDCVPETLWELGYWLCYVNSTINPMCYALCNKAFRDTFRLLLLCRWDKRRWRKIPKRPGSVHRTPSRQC

[13] = biological target: Metabotropic glutamate receptor 1 (Homo sapiens, UniProt Q13255); experiment: Agonist activity at mGlu1 receptor (unknown origin) at 12.5 uM relative to control
[14] = biological target: Metabotropic glutamate receptor 2 (Homo sapiens) (UniProt Q14416); experiment: Agonist activity at mGlu2 receptor (unknown origin) at 12.5 uM relative to control
[15] = biological target: Substance-P receptor (Homo sapiens) (UniProt P25103); experiment: Agonist activity at NK1 receptor (unknown origin) at 12.5 uM relative to control
[16] = biological target: Delta-type opioid receptor (Homo sapiens) (UniProt P41143); experiment: Agonist activity at OPRD1 receptor (unknown origin) at 12.5 uM relative to control
Chain of Delta-type opioid receptor (Homo sapiens) (P41143 whole entry): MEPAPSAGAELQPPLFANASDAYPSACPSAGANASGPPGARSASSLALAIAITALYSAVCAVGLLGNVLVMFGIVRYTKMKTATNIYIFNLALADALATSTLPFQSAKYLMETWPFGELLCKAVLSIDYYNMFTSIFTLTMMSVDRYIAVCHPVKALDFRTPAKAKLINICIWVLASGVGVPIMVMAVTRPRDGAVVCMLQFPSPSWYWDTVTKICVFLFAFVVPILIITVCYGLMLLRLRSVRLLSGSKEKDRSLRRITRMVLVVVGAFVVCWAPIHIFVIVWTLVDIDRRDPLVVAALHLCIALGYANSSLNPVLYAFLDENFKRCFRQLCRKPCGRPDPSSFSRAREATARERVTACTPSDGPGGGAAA

[17] = biological target: 5-hydroxytryptamine receptor 2C (Homo sapiens) (UniProt P28335); experiment: Antagonist activity at 5HT2C receptor (unknown origin) at 10 uM relative to control
[18] = biological target: B2 bradykinin receptor (Homo sapiens) (UniProt P30411); experiment: Antagonist activity at BDKR2 (unknown origin) at 10 uM relative to control
[19] = biological target: Cannabinoid receptor 1 (Homo sapiens) (UniProt P21554); experiment: Antagonist activity at CB1 receptor (unknown origin) at 10 uM relative to control
[20] = biological target: C-C chemokine receptor type 2 (Homo sapiens) (UniProt P41597); experiment: Antagonist activity at CCR2B (unknown origin) at 10 uM relative to control
[21] = biological target: C-X-C chemokine receptor type 2 (Homo sapiens) (UniProt P25025); experiment: Antagonist activity at CXCR2 (unknown origin) at 10 uM relative to control
[22] = biological target: Delta-type opioid receptor (Homo sapiens) (UniProt P41143); experiment: Antagonist activity at OPRD1 receptor (unknown origin) at 10 uM relative to control
[23] = test system: Rattus norvegicus; experiment: Analgesic activity in rat spinal nerve ligation model of neuropathic pain assessed as recovery from mechanical allodynia at 100 mg/kg, po administered on day 14 post ligation surgery measured after 3 hrs relative to control; type: functional
[24] = test system: Rattus norvegicus; experiment: Analgesic activity in rat spinal nerve ligation model of neuropathic pain assessed as recovery from cold allodynia at 100 mg/kg, po administered on day 14 post ligation surgery measured after 1 hr relative to control; type: functional
[25] = AUClast in Sprague-Dawley rat at 10 mg/kg, iv by LC-MS/MS analysis; type: ADME, organism-based; design: time 0 - last, dose 10 mg/kg, route intravenous; details: plasma
[26] = Terminal half life in Sprague-Dawley rat at 10 mg/kg, iv by LC-MS/MS analysis; type: ADME, organism-based; design: dose 10 mg/kg, route intravenous; details: in vivo, read-out: beta t1/2
[27] = Apparent volume of distribution at steady state in Sprague-Dawley rat at 10 mg/kg, iv by LC-MS/MS analysis; type: ADME, organism-based; design: dose 10 mg/kg, route intravenous; details: in vivo, read-out: Vdss(app)
[28] = Drug excretion in Sprague-Dawley rat at 10 mg/kg, iv by LC-MS/MS analysis; type: ADME, organism-based; design: dose 10 mg/kg, route intravenous; details: in vivo, read-out: Drug excretion
[29] = Drug uptake in Sprague-Dawley rat brain at 10 mg/kg, iv measured at 2 hrs by LC-MS/MS analysis; type: ADME, organism-based; design: dose 10 mg/kg, route intravenous; details: read-out: Drug uptake
[30] = Bioavailability in Sprague-Dawley rat at 10 mg/kg, iv by LC-MS/MS analysis; type: ADME, organism-based; details: in vivo
[31] = AUC (0 to infinity) in Sprague-Dawley rat at 10 mg/kg, po by LC-MS/MS analysis; type: ADME, organism-based; design: time infinity, dose 10 mg/kg, route oral; details: plasma
[32] = Tmax in Sprague-Dawley rat at 10 mg/kg, po by LC-MS/MS analysis; type: ADME, organism-based; design: dose 10 mg/kg, route oral; details: in vivo
[33] = Drug excretion in Sprague-Dawley rat at 10 mg/kg, po by LC-MS/MS analysis; type: ADME, organism-based; design: dose 10 mg/kg, route oral; details: in vivo, read-out: Drug excretion
[34] = Plasma concentration in Sprague-Dawley rat at 10 mg/kg, po measured at 2 hrs by LC-MS/MS analysis; type: ADME, organism-based; design: dose 10 mg/kg, route oral
[35] = Drug uptake in Sprague-Dawley rat brain at 10 mg/kg, po measured at 2 hrs by LC-MS/MS analysis; type: ADME, organism-based; design: dose 10 mg/kg, route oral; details: read-out: Drug uptake

`Cc1cc(C(=O)N2CCc3c(sc(NCc4ccccc4)c3C#N)C2)[nH]n1` gave an activity at 20 min, 10 µM [1] of 33.7%, an activity at 20 min, 10 µM [2] of 6.77% and an activity at 20 min, 10 µM [3] of 14.2%. The remaining at 0.5 h, 1 µM [4] was 77.6%, the Activity [5] was -4% and the Activity [6] was -0.3%. It also gave an Activity [7] of 0.7%, an Activity [8] of 0.3% and an Activity [9] of -2.3%. The Activity [10] was -0.6%, the Activity [11] was -2.9% and the Activity [12] was -0.5%. It also gave an Activity [13] of -0.2%, an Activity [14] of -2.7% and an Activity [15] of 0.8%. The Activity [16] was 1.5%, the inhibition [17] was -9.4% and the inhibition [18] was 10.3%. It also gave an inhibition [19] of -2.8%, an inhibition [20] of -0.1% and an inhibition [21] of -4.6%. For the same compound, the inhibition [22] was 3.8%, the Activity [23] was 60% and the Activity [24] was 90%. The AUC(0-t) [25] was 9060 ng·h/mL, the half-life [26] was 1.83 h and the Vd [27] was 1.66 L/kg. For the same compound, the dose excreted [28] was 0%, the concentration at 2 h [29] was 138 ng/mL and the bioavailability [30] was 45.8%. For the same compound, the AUC(0-inf) [31] was 4250 ng·h/mL, the Tmax [32] was 1.2 h and the dose excreted [33] was 0%. It also gave a concentration at 2 h [34] of 1190 ng/mL and a concentration at 2 h [35] of 156 ng/mL.
